# From patent US7329652B2, “Diaminotriazole compounds useful as protein kinase inhibitors” (Vertex Pharamaceuticals Incorporated, priority 2004, dated 2008)
# Where two headings read alike, the source gives them in different places.
# Experiments:
# JAK-2 enzyme = JAK-2 enzyme (Homo sapiens, UniProt O60674); assay: JAK2 inhibition assay (radiometric 33P filter assay); format: biochemical
# Description: (§1) Compounds were screened for their ability to inhibit JAK using the assay shown below. Reactions were carried out in a kinase buffer containing 100 mM HEPES (pH 7.4), 1 mM DTT, 10 mM MgCl2, 25 mM NaCl, and 0.01% BSA.
# (§2) Substrate concentrations in the assay were 5 μM ATP (200 uCi/μmole ATP) and 1 μM poly(Glu)4Tyr. Reactions were carried out at 25° C. and 1 nM JAK3.
# (§3) To each well of a 96 well polycarbonate plate was added 1.5 μl of a candidate JAK3 inhibitor along with 50 μl of kinase buffer containing 2 μM poly(Glu)4Tyr and 10 μM ATP. This was then mixed and 50 μl of kinase buffer containing 2 nM JAK3 enzyme was added to start the reaction. After 20 minutes at room temperature (25° C.), the reaction was stopped with 50 μl of 20% trichloroacetic acid (TCA) that also contained 0.4 mM ATP. The entire contents of each well were then transferred to a 96 well glass fiber filter plate using a TomTek Cell Harvester. After washing, 60 μl of scintillation fluid was added and ^33P incorporation detected on a Perkin Elmer TopCount.
# The assays were as described above in Example 25 except that JAK-2 enzyme was used, the final poly(Glu)4Tyr concentration was 15 μM, and final ATP concentration was 12 μM.
# JAK3 = target: T1, JAK3 (Homo sapiens, UniProt P52333); assay: JAK3 inhibition assay (radiometric 33P filter assay); format: biochemical
# T1 sequence (P52333 1-1124): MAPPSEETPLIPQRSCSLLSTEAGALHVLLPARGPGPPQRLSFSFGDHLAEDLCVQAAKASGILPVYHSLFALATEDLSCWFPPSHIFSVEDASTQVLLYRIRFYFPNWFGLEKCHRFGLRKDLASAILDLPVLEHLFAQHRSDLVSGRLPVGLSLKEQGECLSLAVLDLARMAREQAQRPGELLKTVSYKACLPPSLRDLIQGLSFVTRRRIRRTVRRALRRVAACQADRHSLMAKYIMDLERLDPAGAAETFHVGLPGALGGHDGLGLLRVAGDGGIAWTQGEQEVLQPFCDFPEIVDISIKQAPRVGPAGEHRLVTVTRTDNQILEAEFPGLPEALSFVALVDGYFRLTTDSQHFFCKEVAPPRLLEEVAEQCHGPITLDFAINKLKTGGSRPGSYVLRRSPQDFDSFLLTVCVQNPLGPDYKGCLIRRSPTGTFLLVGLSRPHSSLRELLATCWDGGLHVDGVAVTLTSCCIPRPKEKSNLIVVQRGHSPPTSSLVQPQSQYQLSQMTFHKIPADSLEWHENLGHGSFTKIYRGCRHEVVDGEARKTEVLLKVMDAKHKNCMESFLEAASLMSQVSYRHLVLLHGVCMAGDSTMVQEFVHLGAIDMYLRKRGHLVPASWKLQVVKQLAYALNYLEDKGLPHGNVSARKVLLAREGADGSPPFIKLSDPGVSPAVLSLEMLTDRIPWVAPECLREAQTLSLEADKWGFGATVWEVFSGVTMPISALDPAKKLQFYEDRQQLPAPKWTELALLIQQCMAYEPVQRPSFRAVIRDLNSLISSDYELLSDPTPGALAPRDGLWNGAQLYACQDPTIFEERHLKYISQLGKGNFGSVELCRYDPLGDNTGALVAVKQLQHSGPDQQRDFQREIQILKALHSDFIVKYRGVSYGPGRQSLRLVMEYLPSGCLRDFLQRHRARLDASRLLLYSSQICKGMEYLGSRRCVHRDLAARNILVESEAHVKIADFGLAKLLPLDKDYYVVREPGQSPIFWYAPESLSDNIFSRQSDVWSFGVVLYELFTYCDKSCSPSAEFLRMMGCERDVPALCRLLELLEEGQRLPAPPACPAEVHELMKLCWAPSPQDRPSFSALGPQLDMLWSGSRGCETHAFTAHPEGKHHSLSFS
# Description: as §1, §2, §3
# [1] = 15 μM poly(Glu)4Tyr, 12 μM ATP, read-out: JAK2 inhibition data (Ki)
# [2] = 1 μM poly(Glu)4Tyr, 5 μM ATP, 1 nM JAK3, 25° C., read-out: JAK3 inhibition data (Ki)
# Sequence of JAK-2 enzyme (O60674 whole entry, species assumed): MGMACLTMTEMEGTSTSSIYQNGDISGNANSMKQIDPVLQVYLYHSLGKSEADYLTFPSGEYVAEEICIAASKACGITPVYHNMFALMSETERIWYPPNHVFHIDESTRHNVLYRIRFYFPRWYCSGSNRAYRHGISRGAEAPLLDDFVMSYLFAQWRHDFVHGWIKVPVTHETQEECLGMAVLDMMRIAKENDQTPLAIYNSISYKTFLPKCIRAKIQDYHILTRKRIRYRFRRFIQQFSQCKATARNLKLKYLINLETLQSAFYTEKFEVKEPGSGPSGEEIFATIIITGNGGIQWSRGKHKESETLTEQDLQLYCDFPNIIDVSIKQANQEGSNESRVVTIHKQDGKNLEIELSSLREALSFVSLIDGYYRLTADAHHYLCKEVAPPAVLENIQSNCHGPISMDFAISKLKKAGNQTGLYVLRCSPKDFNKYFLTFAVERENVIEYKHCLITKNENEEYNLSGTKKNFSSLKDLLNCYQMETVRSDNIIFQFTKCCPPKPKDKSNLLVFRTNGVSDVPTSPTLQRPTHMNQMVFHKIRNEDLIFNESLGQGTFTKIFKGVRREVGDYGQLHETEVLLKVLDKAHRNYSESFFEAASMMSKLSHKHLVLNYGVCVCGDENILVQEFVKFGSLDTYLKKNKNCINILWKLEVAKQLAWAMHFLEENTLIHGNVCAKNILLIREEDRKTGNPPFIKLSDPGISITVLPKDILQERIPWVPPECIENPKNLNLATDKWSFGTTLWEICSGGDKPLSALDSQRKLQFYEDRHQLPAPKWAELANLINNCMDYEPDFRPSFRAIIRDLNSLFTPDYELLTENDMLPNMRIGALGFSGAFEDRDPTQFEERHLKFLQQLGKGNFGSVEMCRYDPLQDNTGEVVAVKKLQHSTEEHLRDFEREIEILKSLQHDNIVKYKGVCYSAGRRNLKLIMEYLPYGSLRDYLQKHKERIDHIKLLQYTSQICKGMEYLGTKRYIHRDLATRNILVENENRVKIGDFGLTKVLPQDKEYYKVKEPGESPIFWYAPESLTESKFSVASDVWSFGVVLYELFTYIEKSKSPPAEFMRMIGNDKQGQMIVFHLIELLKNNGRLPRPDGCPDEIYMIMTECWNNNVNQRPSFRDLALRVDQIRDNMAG
SMILES,Ki (JAK-2 enzyme; [1]) [nM],Ki (JAK3; [2]) [nM],Ki (JAK-2 enzyme) [nM],Ki (JAK3) [nM]
CCCOC(=O)Nc1ccc(Nc2nc(N)n(-c3cc(N4CCCN(C(C)=O)CC4)ncn3)n2)cc1 [Compound 92],< 50,< 50,,
CCCOC(=O)N1CCN(c2ccc(Nc3nc(N)n(-c4ccnc(N5CCCN(C(=O)OC)CC5)c4)n3)cc2)CC1 [Compound 158],50 to 500,50 to 500,,
CC(=O)N1CCCN(c2cc(-n3nc(Nc4ccc(NC(=O)OC(C)(C)C)cc4)nc3N)ncn2)CC1 [Compound 21],< 50,< 50,,
CC(=O)N1[C@H](C)CN(c2cc(-n3nc(Nc4ccc(N(C)C(=O)Oc5ccc(C)cc5)cc4)nc3N)ncn2)C[C@@H]1C [Compound 121],,,< 50,< 50
Cc1ccc(OC(=O)Nc2ccc(Nc3nc(N)n(-c4cc(N5CCCN(C(=O)CC#N)CC5)ncn4)n3)cc2)cc1 [Compound 138],< 50,< 50,,
COC1CCC(C(=O)Nc2ccc(Nc3nc(N)n(-c4cc(N5CCCN(C(C)=O)CC5)ncn4)n3)cc2)CC1 (centres unmarked) [Compound 31],< 50,< 50,,
CC(=O)N1CCCN(c2cc(-n3nc(Nc4ccc(N(C)C(=O)Oc5ccc(C)cc5)cc4)nc3N)ncn2)CC1 [Compound 133],,,< 50,< 50
CCCOC(=O)Nc1ccc(Nc2nc(N)n(-c3ccnc(N4CCCN(C(C)=O)CC4)c3)n2)cc1 [Compound 172],50 to 500,< 50,,
CCCNC(=O)Nc1ccc(Nc2nc(N)n(-c3cc(N4CCCN(C(C)=O)CC4)ncn3)n2)cc1 [Compound 85],< 50,< 50,,
CCOC(=O)N1CCN(c2ccc(Nc3nc(N)n(-c4ccnc(N5CCCN(C(=O)OC)CC5)c4)n3)cc2)CC1 [Compound 148],50 to 500,50 to 500,,
CC(=O)N1CCCN(c2cc(-n3nc(Nc4ccc(N5CCN(C(=O)OCC(C)(C)C)CC5)cc4)nc3N)ncn2)CC1 [Compound 49],< 50,< 50,,
CC(C)(C)OC(=O)N1CCN(c2ccc(Nc3nc(N)n(-c4cc(N5CCCN(C(=O)CC#N)CC5)ncn4)n3)cc2)CC1 [Compound 122],< 50,< 50,,
CCOC(=O)N1CCN(c2ccc(Nc3nc(N)n(-c4cc(NC)ncn4)n3)cc2)CC1 [Compound 167],< 50,< 50,,
CCCOC(=O)N1CCN(c2ccc(Nc3nc(N)n(-c4ccnc(N5CCCN(C(=O)CC#N)CC5)c4)n3)cc2)CC1 [Compound 140],< 50,< 50,,
CC(=O)N1CCCN(c2cc(-n3nc(Nc4ccc(N(C)C(=O)OCC(C)C)cc4)nc3N)ncn2)CC1 [Compound 131],< 50,< 50,,
CCCCS(=O)(=O)N1CCCN(c2cc(-n3nc(Nc4ccc(N5CCN(C(=O)OCC)CC5)cc4)nc3N)ccn2)CC1 [Compound 147],50 to 500,50 to 500,,
CC(=O)N1CCCN(c2cc(-n3nc(Nc4ccc(NC(=O)OCC(C)(C)C)cc4)nc3N)ccn2)CC1 [Compound 176],50 to 500,50 to 500,,
CC(=O)N1CCCN(c2cc(-n3nc(Nc4ccc(NC(=O)OC(C)C)cc4)nc3N)ncn2)CC1 [Compound 93],< 50,< 50,,
CCOC(=O)N1CCN(c2ccc(Nc3nc(N)n(-c4cc(N5CCCN(S(C)(=O)=O)CC5)ncn4)n3)cc2)CC1 [Compound 144],50 to 500,50 to 500,,
Nc1nc(Nc2ccc(N3CCOCC3)cc2)nn1-c1cc(N2CCCN(C(=O)CC(F)(F)F)CC2)ncn1 [Compound 9],< 50,< 50,,
CC(=O)N1CCCN(c2cc(-n3nc(Nc4ccc(NC(=O)O[C@@H]5C[C@@H](C)CC[C@@H]5C(C)C)cc4)nc3N)ncn2)CC1 [Compound 98],50 to 500,50 to 500,,
CCS(=O)(=O)N1CCCN(c2cc(-n3nc(Nc4ccc(N5CCN(C(=O)OC(C)C)CC5)cc4)nc3N)ccn2)CC1 [Compound 169],50 to 500,50 to 500,,

# More lines, main results first:
Ki (JAK-2 enzyme; [1]) [nM],Ki (JAK3; [2]) [nM],SMILES,Ki (JAK-2 enzyme) [nM],Ki (JAK3) [nM]
< 50,< 50,CCCNC(=O)N1CCN(c2ccc(Nc3nc(N)n(-c4cc(N5C[C@@H](C)N(C(C)=O)[C@@H](C)C5)ncn4)n3)cc2)CC1 [Compound 61],,
< 50,< 50,CC(=O)N1[C@H](C)CN(c2cc(-n3nc(Nc4ccc(N5CCN(C(=O)OC(C)C)CC5)cc4)nc3N)ncn2)C[C@@H]1C [Compound 56],,
< 50,< 50,CC(=O)N1CCCN(c2cc(-n3nc(Nc4ccc(N5CCN(C(=O)OCC(C)C)CC5)cc4)nc3N)ncn2)CC1 [Compound 50],,
< 50,< 50,COC(=O)N1CCN(c2ccc(Nc3nc(N)n(-c4cc(N5C[C@@H](C)N(C(C)=O)[C@@H](C)C5)ncn4)n3)cc2)CC1 [Compound 53],,
< 50,< 50,CCOC(=O)CCNC(=O)Nc1ccc(Nc2nc(N)n(-c3cc(N4C[C@@H](C)N(C(C)=O)[C@@H](C)C4)ncn3)n2)cc1 [Compound 72],,
< 50,< 50,CCNC(=O)N1CCN(c2ccc(Nc3nc(N)n(-c4cc(N5C[C@@H](C)N(C(C)=O)[C@@H](C)C5)ncn4)n3)cc2)CC1 [Compound 60],,
< 50,< 50,CC(=O)N1CCCN(c2cc(-n3nc(Nc4ccc(N5CCN(C(=O)C6CCC6)CC5)cc4)nc3N)ncn2)CC1 [Compound 40],,
< 50,< 50,CC(=O)N1[C@H](C)CN(c2cc(-n3nc(Nc4ccc(N5CCN(C(=O)OC(C)C)CC5)cc4)nc3N)ccn2)C[C@@H]1C [Compound 143],,
< 50,< 50,CC(=O)N1[C@H](C)CN(c2cc(-n3nc(Nc4ccc(N5CCN(C(=O)NC(C)C)CC5)cc4)nc3N)ncn2)C[C@@H]1C [Compound 62],,
< 50,< 50,CC(=O)N1[C@H](C)CN(c2cc(-n3nc(Nc4ccc(NC(=O)NC5CCCCC5)cc4)nc3N)ncn2)C[C@@H]1C [Compound 71],,
< 50,< 50,"CC(=O)Nc1ccc(Nc2nc(N)n(-c3ccnc(N4C[C@@H](C)N(C(C)=O)[C@@H](C)C4)c3)n2)cc1 [Compound 35, N-(4-{1-[2-(4-Acetyl-3,5-dimethyl-piperazin-1-yl)-pyridin-4-yl]-5-amino-1H-[1,2,4]triazol-3-ylamino}-phenyl)-acetamide]",,
< 50,< 50,CC(=O)N1[C@H](C)CN(c2cc(-n3nc(Nc4ccc(N5CCNCC5)cc4)nc3N)ncn2)C[C@@H]1C [Compound 59],,
< 50,< 50,CCOC(=O)CCNC(=O)N1CCN(c2ccc(Nc3nc(N)n(-c4cc(N5C[C@@H](C)N(C(C)=O)[C@@H](C)C5)ncn4)n3)cc2)CC1 [Compound 65],,
< 50,< 50,CC(=O)N1CCCN(c2cc(-n3nc(Nc4ccc(N)cc4)nc3N)ncn2)CC1 [Compound 20],,
< 50,< 50,CC(=O)N1[C@H](C)CN(c2cc(-n3nc(Nc4ccc(N5CCN(C(=O)OC(C)(C)C)CC5)cc4)nc3N)ncn2)C[C@@H]1C [Compound 52],,
< 50,< 50,CC(=O)N1[C@H](C)CN(c2cc(-n3nc(Nc4ccc(NC(=O)NC(C)(C)C)cc4)nc3N)ncn2)C[C@@H]1C [Compound 70],,
< 50,< 50,CC(=O)N1[C@H](C)CN(c2cc(-n3nc(Nc4ccc(N(C)C(=O)OC(C)(C)C)cc4)nc3N)ncn2)C[C@@H]1C [Compound 114],,
< 50,< 50,CCCOC(=O)N1CCN(c2ccc(Nc3nc(N)n(-c4cc(N5CCCN(C(C)=O)CC5)ncn4)n3)cc2)CC1 [Compound 47],,
